Source: PMC7367925, “The EU-ToxRisk method documentation, data processing and chemical testing pipeline for the regulatory use of new approach methods” (Archives of Toxicology, 2020)

What was measured:
[1] = system: U-2 OS reporter cell lines battery; experiment: CALUX reporter gene assay battery as a whole; conditions: all CALUX assays, 13 concentrations, 24 h exposure
U-2 OS cells = experiment: Cytotox CALUX; conditions: 24 h exposure, lowest effect level PC20, means from 3 assay runs
[2] = biological target: T1, Aryl Hydrocarbon receptor (Rattus norvegicus, UniProt P41738); experiment: DR CALUX / AhR CALUX (rat hepatoma H-4-II-E cells); type: cell-based; conditions: 24 h exposure, lowest effect level PC10, means from 3 assay runs
T1 construct: host or cells: rat hepatoma H-4-II-E (ATCC CRL-1548)
T1 sequence (P41738 10-853): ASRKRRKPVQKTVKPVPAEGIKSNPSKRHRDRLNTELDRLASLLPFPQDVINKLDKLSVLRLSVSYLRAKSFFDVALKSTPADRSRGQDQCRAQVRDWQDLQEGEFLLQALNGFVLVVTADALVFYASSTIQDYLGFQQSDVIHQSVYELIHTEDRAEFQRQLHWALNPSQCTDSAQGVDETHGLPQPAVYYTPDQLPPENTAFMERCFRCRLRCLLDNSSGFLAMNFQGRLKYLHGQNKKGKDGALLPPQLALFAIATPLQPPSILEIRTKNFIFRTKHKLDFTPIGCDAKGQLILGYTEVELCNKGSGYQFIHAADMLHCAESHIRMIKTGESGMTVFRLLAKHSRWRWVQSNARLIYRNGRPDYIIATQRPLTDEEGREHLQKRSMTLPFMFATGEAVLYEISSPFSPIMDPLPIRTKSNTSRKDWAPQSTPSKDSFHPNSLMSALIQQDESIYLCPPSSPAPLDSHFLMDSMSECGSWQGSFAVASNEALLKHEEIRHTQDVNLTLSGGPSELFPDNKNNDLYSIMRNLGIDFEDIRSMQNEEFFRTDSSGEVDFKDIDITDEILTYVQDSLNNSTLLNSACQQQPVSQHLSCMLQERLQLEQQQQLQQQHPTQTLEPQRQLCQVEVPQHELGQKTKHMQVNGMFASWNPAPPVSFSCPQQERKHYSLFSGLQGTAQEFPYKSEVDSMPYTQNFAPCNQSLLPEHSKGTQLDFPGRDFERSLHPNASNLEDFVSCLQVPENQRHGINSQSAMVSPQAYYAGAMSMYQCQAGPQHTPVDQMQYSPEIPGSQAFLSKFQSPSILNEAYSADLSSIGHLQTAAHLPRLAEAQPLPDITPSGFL

Pregnane X receptor = biological target: T2, Pregnane X receptor (Homo sapiens, UniProt O75469); experiment: PXR CALUX; type: cell-based; conditions: 24 h exposure, lowest effect level PC10, means from 3 assay runs
T2 construct: host or cells: U-2 OS
T2 sequence (O75469 1-434): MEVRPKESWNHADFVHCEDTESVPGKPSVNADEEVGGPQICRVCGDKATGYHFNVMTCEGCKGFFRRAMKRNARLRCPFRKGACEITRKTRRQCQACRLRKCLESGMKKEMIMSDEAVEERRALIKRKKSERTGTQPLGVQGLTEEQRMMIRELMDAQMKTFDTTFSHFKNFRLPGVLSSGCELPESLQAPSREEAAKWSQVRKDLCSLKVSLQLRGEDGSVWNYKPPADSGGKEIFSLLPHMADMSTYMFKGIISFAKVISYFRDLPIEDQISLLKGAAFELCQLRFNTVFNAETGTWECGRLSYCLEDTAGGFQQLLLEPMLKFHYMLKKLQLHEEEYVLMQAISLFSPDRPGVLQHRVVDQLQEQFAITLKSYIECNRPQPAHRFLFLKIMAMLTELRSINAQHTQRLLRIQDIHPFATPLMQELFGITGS
Experimental: (§1) After 24 h, exposure medium was prepared. […] All samples were tested in triplicates. […] Fig. SM_4. […] Fig. SM_4.
(§2) Supplementary Material SM_4
(§3) Overview of CALUX assays.
(§4) This is defined as the concentration of test compound […]
(§5) for an antagonist assay is a PC20.
(§6) PC = positive control. FI = fold induction. PC10: concentration where test compound causes an activation equal to 10% of the maximum effect (positive control). PC20: concentration where test compound causes […]
(§7) FI=1.5: concentration where test
(§8) (A) exemplary graph of concentration- […]
(§9) receptor antagonism assay with PC20 as lowest-effect-level. (C) exemplary graph for assay with 1.5 fold inductionas lowest effect level. 9

Estrogen receptor alpha = biological target: T3, Estrogen receptor alpha (Homo sapiens, UniProt P03372); type: cell-based; conditions: 24 h exposure, lowest effect level PC10, means from 3 assay runs
T3 construct: host or cells: U-2 OS
T3 sequence (P03372 whole entry): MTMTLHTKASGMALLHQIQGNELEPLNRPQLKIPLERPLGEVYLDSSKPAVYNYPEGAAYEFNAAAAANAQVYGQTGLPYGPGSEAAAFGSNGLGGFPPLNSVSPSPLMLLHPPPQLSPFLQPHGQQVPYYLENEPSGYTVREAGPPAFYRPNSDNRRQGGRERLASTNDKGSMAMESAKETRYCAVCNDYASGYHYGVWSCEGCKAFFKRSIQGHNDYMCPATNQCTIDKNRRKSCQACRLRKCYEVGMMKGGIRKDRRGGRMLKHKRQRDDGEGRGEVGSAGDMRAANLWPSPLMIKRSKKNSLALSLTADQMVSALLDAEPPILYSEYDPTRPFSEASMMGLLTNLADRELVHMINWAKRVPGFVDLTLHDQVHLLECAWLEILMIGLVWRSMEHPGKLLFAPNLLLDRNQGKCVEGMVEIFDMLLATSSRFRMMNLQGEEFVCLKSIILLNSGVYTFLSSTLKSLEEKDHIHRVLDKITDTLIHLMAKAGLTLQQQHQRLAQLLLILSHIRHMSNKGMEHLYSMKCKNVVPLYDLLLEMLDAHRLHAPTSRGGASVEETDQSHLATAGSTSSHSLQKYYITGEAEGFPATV
Experimental: as §1, §2, §3, §4, §5, §6, §7, §8, §9

Glucocorticoid receptor = biological target: T4, Glucocorticoid receptor (Homo sapiens, UniProt P04150); type: cell-based; conditions: 24 h exposure, lowest effect level PC20, reference agonist at EC50, means from 3 assay runs
T4 construct: host or cells: U-2 OS
T4 sequence (P04150 1-777): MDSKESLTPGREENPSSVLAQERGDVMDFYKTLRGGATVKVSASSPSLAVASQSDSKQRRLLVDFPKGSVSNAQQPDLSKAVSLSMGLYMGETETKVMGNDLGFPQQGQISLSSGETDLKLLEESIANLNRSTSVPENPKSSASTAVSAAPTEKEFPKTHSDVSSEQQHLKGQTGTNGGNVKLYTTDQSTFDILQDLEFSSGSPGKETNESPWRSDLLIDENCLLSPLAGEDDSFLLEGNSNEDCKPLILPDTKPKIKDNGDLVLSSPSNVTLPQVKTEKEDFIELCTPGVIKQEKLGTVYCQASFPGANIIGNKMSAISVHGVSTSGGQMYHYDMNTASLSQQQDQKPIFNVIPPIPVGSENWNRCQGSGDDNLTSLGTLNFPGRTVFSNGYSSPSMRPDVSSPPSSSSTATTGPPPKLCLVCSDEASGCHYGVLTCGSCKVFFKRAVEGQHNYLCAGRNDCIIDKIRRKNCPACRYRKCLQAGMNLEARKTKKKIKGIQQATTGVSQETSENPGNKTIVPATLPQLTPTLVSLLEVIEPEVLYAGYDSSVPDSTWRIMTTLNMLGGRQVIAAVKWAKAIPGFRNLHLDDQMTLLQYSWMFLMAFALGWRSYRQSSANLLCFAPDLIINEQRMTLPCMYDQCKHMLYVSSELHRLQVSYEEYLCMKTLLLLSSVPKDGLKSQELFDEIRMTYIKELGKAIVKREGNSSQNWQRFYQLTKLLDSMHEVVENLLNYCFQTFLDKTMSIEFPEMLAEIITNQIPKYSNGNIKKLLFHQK
Experimental: as §1, §2, §3, §4, §5, §6, §7, §8, §9

Progesterone receptor = biological target: T5, Progesterone receptor (Homo sapiens, UniProt P06401); experiment: PR-anti CALUX; type: cell-based; conditions: 24 h exposure, lowest effect level PC20, reference agonist at EC50, means from 3 assay runs
T5 construct: host or cells: U-2 OS
T5 sequence (P06401 1-933): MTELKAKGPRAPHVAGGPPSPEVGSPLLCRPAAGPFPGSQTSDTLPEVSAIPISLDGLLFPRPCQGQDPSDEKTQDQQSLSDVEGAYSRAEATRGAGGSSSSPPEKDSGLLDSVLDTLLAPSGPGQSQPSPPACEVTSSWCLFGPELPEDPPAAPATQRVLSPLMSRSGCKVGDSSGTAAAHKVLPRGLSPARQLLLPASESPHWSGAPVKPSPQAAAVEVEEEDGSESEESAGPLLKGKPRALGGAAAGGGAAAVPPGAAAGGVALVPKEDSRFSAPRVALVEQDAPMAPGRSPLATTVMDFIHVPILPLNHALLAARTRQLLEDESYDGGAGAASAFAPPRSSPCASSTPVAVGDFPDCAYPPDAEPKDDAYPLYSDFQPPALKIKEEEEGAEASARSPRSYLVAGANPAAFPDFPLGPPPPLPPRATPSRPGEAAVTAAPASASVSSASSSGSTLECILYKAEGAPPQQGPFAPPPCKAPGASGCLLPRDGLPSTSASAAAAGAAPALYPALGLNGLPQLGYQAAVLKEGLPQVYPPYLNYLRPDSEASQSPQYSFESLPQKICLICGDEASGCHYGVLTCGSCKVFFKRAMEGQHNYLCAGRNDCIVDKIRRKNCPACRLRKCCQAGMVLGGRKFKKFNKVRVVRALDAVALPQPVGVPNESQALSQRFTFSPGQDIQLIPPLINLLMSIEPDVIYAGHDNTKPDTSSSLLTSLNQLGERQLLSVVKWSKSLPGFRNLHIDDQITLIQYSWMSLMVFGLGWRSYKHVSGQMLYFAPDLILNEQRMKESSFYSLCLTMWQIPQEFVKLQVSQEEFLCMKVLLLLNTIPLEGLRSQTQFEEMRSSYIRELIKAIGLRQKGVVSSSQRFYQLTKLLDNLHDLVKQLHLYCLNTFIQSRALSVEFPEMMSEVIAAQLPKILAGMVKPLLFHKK
Experimental: as §1, §2, §3, §4, §5, §6, §7, §8, §9

[3] = parameters: method as in Sommar et al. 2000; conditions: KAW < 0.03 considered non-volatile; ref Sommar et al. 2000; cited from earlier work
[4] = system: AP1 pathway activation / cell cycle control; experiment: AP-1 CALUX; type: cell-based, human; conditions: 24 h exposure, lowest effect level PC10, means from 3 assay runs
Experimental: as §1, §2, §3, §4, §5, §6, §7, §8, §9

[5] = system: p53-dependent pathway activation / genotoxicity; type: cell-based, human; conditions: 24 h exposure, lowest effect level FI=1.5, means from 3 assay runs
Experimental: as §1, §2, §3, §4, §5, §6, §7, §8, §9

Nrf2 (Oxidative stress) = experiment: Nrf2 CALUX; type: cell-based, human; conditions: 24 h exposure, lowest effect level FI=1.5, means from 3 assay runs
Experimental: as §1, §2, §3, §4, §5, §6, §7, §8, §9

SMILES	response profile over the CALUX battery (in words) [1]	PoD cytotoxicity (U-2 OS cells)	PoD AhR - ago [2]	PoD PXR - ago (Pregnane X receptor)	PoD Erα - ago (Estrogen receptor alpha)	PoD GR - anta (Glucocorticoid receptor)	PoD PR - anta (Progesterone receptor)	air-water partition coefficient KAW [3]	PoD AP1 [4]	PoD p53 [5]	PoD Nrf2 (Nrf2 (Oxidative stress))
O=P(Oc1ccccc1)(Oc1ccccc1)Oc1ccccc1 [Triphenyl phosphate]	only activated nuclear hormone receptor related assays	4.0 -log(M)	4.2 -log(M)	6.1 -log(M)	5.4 -log(M)	4.8 -log(M)	5.2 -log(M)				
[Cl][Hg][Cl] [Mercury chloride]	only activated stress pathway related assays	4.7 -log(M)						0.02	5.8 -log(M)	5.7 -log(M)	5.5 -log(M)
